Measured values: patent publication US9409882B2, “Pyridine derivatives” (Hoffmann-La Roche Inc., priority 2012, dated 2016)

How the values were obtained:
human Cat L = human Cat L (Homo sapiens (Human), UniProt P07711); test: Cathepsin enzyme inhibition assay (fluorogenic peptide substrate), human Cat L; type: biochemical; settings: human Cat L 1 nM, substrate Z-Val-Val-Arg-AMC 20 μM, pH 6.5
Experimental: (§1) Cathepsin Enzyme Inhibition Assay
(§2) Enzyme activity is measured by observing the increase in fluorescence intensity caused by cleavage of a peptide substrate containing a fluorophore whose emission is quenched in the intact peptide.
(§3) Assay buffer: 100 mM potassium phosphate pH 6.5, EDTA-Na 5 mM, Triton X-100 0.001%, DTT 5 mM.
(§4) Enzymes (all at 1 nM): human and mouse Cathepsin S, Cat K, Cat B, Cat L.
(§5) Substrate (20 μM): Z-Val-Val-Arg-AMC, except for Cat K which uses Z-Leu-Arg-AMC (both from Bachem).
(§6) AMC=7-Amino-4-Methyl-Coumarin.
(§7) Excitation 360 nm, Emission 465 nm.
(§8) Enzyme is added to the substance dilutions in 96-well microtitre plates and the reaction is started with substrate. […] IC50 are calculated by standard methods.
(§9) Inhibition of human Cat S, mouse Cat S, human Cat K, human Cat B, human Cat L and mouse Cat L have been measured separately.

human Cathepsin S = human Cathepsin S (Homo sapiens (Human), UniProt P25774); test: Cathepsin enzyme inhibition assay (fluorogenic peptide substrate), human Cat S; type: biochemical; settings: human Cat S 1 nM, substrate Z-Val-Val-Arg-AMC 20 μM, pH 6.5
Chain of human Cathepsin S (P25774 115-331): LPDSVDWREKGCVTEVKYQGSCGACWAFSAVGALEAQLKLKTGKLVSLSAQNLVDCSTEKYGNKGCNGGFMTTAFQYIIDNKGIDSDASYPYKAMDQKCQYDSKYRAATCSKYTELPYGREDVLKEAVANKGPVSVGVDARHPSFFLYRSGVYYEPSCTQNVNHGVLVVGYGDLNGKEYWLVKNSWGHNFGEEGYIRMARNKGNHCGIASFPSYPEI
Experimental: as §1, §2, §3, §4, §5, §6, §7, §8, §9

Chain of human Cat L (P07711 114-333): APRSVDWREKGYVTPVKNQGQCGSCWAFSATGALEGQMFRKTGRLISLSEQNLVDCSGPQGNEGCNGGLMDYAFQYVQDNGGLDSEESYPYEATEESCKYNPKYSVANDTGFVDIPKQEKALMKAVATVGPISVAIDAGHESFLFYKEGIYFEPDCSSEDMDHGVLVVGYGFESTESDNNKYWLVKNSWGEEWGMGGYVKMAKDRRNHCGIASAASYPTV

| SMILES | IC50 (human Cat L) | IC50 (human Cathepsin S) |
| --- | --- | --- |
| N#CC1(NC(=O)[C@@H]2C[C@@H](S(=O)(=O)c3ccccc3-n3cccn3)CN2C(=O)C2(c3ncc(Cl)cc3F)CC2)CC1 [Example 46] | 17.4 µM | 0.159 µM |
| N#CC1(NC(=O)[C@@H]2C[C@@H](S(=O)(=O)c3ccccc3-n3ccnn3)CN2C(=O)C2(c3ncc(Cl)cc3F)CC2)CC1 [Example 47, (2S,4R)-1-[1-(5-Chloro-3-fluoro-pyridin-2-yl)-cyclopropanecarbonyl]-4-(2-[1,2,3]triazol-1-yl-benzenesulfonyl)-pyrrolidine-2-carboxylic acid (1-cyano-cyclopropyl)-amide] | 35.2 µM | 0.00427 µM |
| N#CC1(NC(=O)[C@@H]2C[C@@H](S(=O)(=O)c3ccccc3-n3cncn3)CN2C(=O)C2(c3ncc(Cl)cc3F)CC2)CC1 [Example 48, (2S,4R)-1-[1-(5-Chloro-3-fluoro-pyridin-2-yl)-cyclopropanecarbonyl]-4-(2-[1,2,4]triazol-1-yl-benzenesulfonyl)-pyrrolidine-2-carboxylic acid (1-cyano-cyclopropyl)-amide] | 21.1 µM | 0.0585 µM |
